Results: patent publication US10184115B2, “Mutated cellobiose dehydrogenase with increased substrate specificity” (DIRECTSENS GMBH, priority 2012, dated 2019)

Target: T1, Myriococcum thermophilum cellobiose dehydrogenase (CDH, SEQ ID NO: 1) variant N721D (Thermothelomyces myriococcoides, UniProt A9XK88, N721D)
T1 sequence (A9XK88 22-828 N721D): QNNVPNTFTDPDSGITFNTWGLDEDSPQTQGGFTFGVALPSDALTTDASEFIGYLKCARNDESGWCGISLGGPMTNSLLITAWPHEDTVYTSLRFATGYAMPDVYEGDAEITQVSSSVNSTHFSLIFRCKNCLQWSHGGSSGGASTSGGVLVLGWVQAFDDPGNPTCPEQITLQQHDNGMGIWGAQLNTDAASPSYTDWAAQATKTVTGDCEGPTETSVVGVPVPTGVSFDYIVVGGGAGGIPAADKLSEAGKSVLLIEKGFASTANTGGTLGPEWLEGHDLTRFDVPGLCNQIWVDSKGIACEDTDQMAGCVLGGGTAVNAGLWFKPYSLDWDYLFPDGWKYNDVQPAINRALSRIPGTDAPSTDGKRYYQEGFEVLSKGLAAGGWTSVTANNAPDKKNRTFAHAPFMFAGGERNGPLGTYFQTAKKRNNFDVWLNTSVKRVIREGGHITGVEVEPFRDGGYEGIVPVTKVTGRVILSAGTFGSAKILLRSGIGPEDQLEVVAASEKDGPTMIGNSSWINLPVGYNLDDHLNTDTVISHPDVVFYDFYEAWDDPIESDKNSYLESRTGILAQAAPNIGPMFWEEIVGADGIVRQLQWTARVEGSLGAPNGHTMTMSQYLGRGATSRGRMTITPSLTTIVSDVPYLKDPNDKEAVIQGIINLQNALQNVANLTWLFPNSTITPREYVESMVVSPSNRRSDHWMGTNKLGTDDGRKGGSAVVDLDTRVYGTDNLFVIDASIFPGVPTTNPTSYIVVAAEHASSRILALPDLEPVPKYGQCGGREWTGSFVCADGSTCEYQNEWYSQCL
Test: Steady-state kinetics, DCIP assay: M. thermophilum CDH N721D
Type: biochemical
Settings: apparent, pH 4.5, 30° C.
Procedure: Enzyme activity was assayed at 30° C. using either the DCIP (Karapetyan et al., 2005 Journal of Biotechnology 121: 34-48) or cytochrome c (Canevascini et al., 1991, European Journal of Biochemistry 198: 43-52) as electron acceptor. […] Stock solutions of carbohydrates used for kinetic measurements were prepared in the respective buffer and allowed to stand overnight for mutarotation, while stock solutions of electron acceptors were prepared in water and immediately used. The reaction stoichiometry is 1 for the two-electron acceptor DCIP (1 mole of DCIP reduced per mole of carbohydrate oxidized), but 2 for the one-electron acceptor cytochrome c. Kinetic constants were calculated by fitting the observed data to the Henri-Michaelis-Menten equation or to the adapted model for substrate inhibition using nonlinear least-squares regression and the program SigmaPlot (Systat Software, San Jose, Calif., USA). […]
Recombinant wild-type CDH as well as variants were produced in 1 L baffled flasks. […] Increase in activity was monitored using the DCIP and the cytochrome c enzyme assays. […]
The sample was loaded on a 20 mL PHE Sepharose FF column (HR26/20) equilibrated with 50 mM Na-acetate buffer pH 5.5 containing 20% ammonium sulfate. […] Fractions were tested for CDH activity and pooled according to the highest Reinheitszahl (RZ, calculated from the absorbance ratio 420 nm/280 nm). […]

`OC[C@H]1OC(O)[C@H](O)[C@@H](O)[C@@H]1O` (some centres unmarked) [Glucose, glucose] was tested, and the kcat was 1.9 s⁻¹ and the kcat/KM was 5.9 M⁻¹ s⁻¹.
